Patent US8067455B2, “Amino acid derived prodrugs of propofol, compositions, uses and crystalline forms thereof” (XenoPort, Inc., priority 2004, dated 2011)
Read-outs that look alike come from different tables or passages of the source.

Tests used:
[1] = Stability at room temperature determined by LC/MS; assay type: physicochemical; conditions: after three months
Protocol: (§1) The hydrochloride (3.42 g, 9.89 mmol) was crystallized by dissolution in a mixture of ethanol and toluene (1/10 v/v, 110 mL) at 80° C. and the mixture allowed to cool to room temperature. Large needle-like crystals started to form after standing at room temperature for 48 h. The solution was filtered after standing for 7 days at room temperature. The product (6) was isolated as a white crystalline solid (2.7 g, 79% yield). ^1H-NMR (400 MHz, CD3OD): δ 7.16-7.24 (m, 3H), 4.81-4.85 (dd, J=12.4, 4.4 Hz, 1H), 4.59-4.63 (dd, J=12.0 Hz, 3.2 Hz, 1H), 4.45-4.49 (dd, J=4.4, 2.8 Hz, 1H), 2.98-3.02 (m, 2H), 1.18-1.19 (d, J=7.2 Hz, 12H). MS (ESI) m/z 310.3 (M+H)^+. Melting point: 188.1-189.1° C.

[2] = Solubility of compound (6) in water and PBS; assay type: physicochemical
Protocol: as §1

[3] = rats, oral dosing; cited from earlier work

Row | SMILES | degradation as an aqueous solution ([1]; aqueous solution) | degradation as a solid ([1]; solid) | solubility ([2]; phosphate buffered saline (PBS), aqueous buffer, read-out: solubility in phosphate buffered saline (PBS)) | solubility ([2]; water, read-out: solubility in water) | administered drug undergoing first pass metabolism [3]
1 | CC(C)c1cccc(C(C)C)c1OC(=O)OC[C@H](N)C(=O)O.Cl [compound (6), (S)-2-Amino-3-(2,6-Diisopropylphenoxy-carbonyloxy)-Propanoic Acid Hydrochloride] | no degradation | no degradation | 8180 µg/mL | 7580 µg/mL | 
2 | CC(C)c1cccc(C(C)C)c1O [propofol, 2,6-diisopropylphenol] |  |  |  |  | approximately 90%
